Laboratory results published in patent US20120141496A1, “IAP BIR DOMAIN BINDING COMPOUNDS” (AEGERA THERAPEUTICS, INC., priority 2007, published 2012).

What was measured:
SKOV-3 = assay: Viability assay (MTT based), SKOV-3; format: cell-based; conditions: Homo sapiens, SK-OV-3, SKOV-3 cells, 72 hours, read-out: SKOV-3 ED50
Experimental: (§1) MDA-MD-231 (breast) and SKOV-3 cancer cells were cultured in RPMI1640 media supplemented with 10% FBS and 100 units/mL of Penicillin and Streptomycin.
(§2) Viability assays were done on a number of cells including MDA-MB-231, SKOV-3, H460, PC3, HCT-116, and SW480 cells. Cells were seeded in 96 well plates at a respective density of 5000 and 2000 cells per well and incubated at 37° C. in presence of 5% CO2 for 24 hours. Selected compounds were diluted into the media at various concentration ranging from 0.01 uM up to 100 uM. Diluted compounds were added onto the MDA-MB-231 cells. For the MDA-MB-231 SKOV3, H460, PC3, HCT-116, and SW480 cells, the compounds were added either alone or in presence of 1-3 ng/ml of TRAIL. After 72 hours cellular viability was evaluated by MTT based assays.

MDA-MB-231 = assay: Viability assay (MTT based), MDA-MB-231; format: cell-based; conditions: Homo sapiens, MDA-MB-231 cells, 72 hours, read-out: MDA-MB-231 ED50
Experimental: as §1, §2

| SMILES | EC50 (SKOV-3) [µM] | EC50 (MDA-MB-231) [µM] |
| --- | --- | --- |
| CN[C@@H](C)C(=O)N[C@@H](Cc1ccc(C#CCO[C@H](C)[C@H](NC(=O)[C@H](C)NC)C(=O)N2CCC[C@H]2CN(CCc2ccccc2)C(=O)C(F)(F)F)cc1)C(=O)N1CCC[C@H]1CN(CCc1ccccc1)C(=O)C(F)(F)F [Compound 1] | 0.131 | 0.017 |
| CN[C@@H](C)C(=O)N[C@@H](Cc1ccc(C#CCO[C@H](C)[C@H](NC(=O)[C@H](C)NC)C(=O)N2CCC[C@H]2CN(CCc2ccccc2)C(=O)[C@H](N)Cc2ccc(OC)cc2)cc1)C(=O)N1CCC[C@H]1CN(CCc1ccccc1)C(=O)C(F)(F)F [Compound 5] | 0.057 |  |
| CN[C@@H](C)C(=O)N[C@@H](Cc1ccc(C#CCO[C@H](C)[C@H](NC(=O)[C@H](CO)NC)C(=O)N2CCC[C@H]2CN(CCc2ccccc2)C(=O)[C@H](N)Cc2ccc(OC)cc2)cc1)C(=O)N1CCC[C@H]1CN(CCc1ccccc1)C(=O)C(F)(F)F [Compound 6] | 0.557 |  |
| CN[C@@H](C)C(=O)N[C@H](C(=O)N1CCC[C@H]1CN(CCc1ccccc1)C(=O)[C@H](N)Cc1ccc(OC)cc1)[C@@H](C)OCC#Cc1ccc(C[C@H](NC(=O)[C@H](CO)NC)C(=O)N2CCC[C@H]2CN(CCc2ccccc2)C(=O)C(F)(F)F)cc1 [Compound 7] | 0.136 |  |
| CN[C@@H](CO)C(=O)N[C@@H](Cc1ccc(C#CCO[C@H](C)[C@H](NC(=O)[C@H](CO)NC)C(=O)N2CCC[C@H]2CN(CCc2ccccc2)C(=O)[C@H](N)Cc2ccc(OC)cc2)cc1)C(=O)N1CCC[C@H]1CN(CCc1ccccc1)C(=O)C(F)(F)F [Compound 8] | 1.92 |  |

Other lines, results leading:

| EC50 (SKOV-3) [µM] | EC50 (MDA-MB-231) [µM] | SMILES |
| --- | --- | --- |
|  | 0.15 | CN[C@@H](C)C(=O)N[C@@H](Cc1ccc(-c2ccc(C[C@H](NC(=O)[C@H](C)NC)C(=O)N3CCC[C@H]3CN(CCc3ccccc3)C(=O)C(F)(F)F)cc2)cc1)C(=O)N1CCC[C@H]1CN(CCc1ccccc1)C(=O)C(F)(F)F [Compound 2] |
| 0.067 |  | CN[C@@H](C)C(=O)N[C@@H](Cc1ccc(C#CC#Cc2ccc(C[C@H](NC(=O)[C@H](C)NC)C(=O)N3CCC[C@H]3CN(CCc3ccccc3)C(=O)C(F)(F)F)cc2)cc1)C(=O)N1CCC[C@H]1CN(CCc1ccccc1)C(=O)C(F)(F)F [Compound 3] |
| 0.037 | 0.159 | CN[C@@H](C)C(=O)N[C@@H](Cc1ccc(C#Cc2ccc(C[C@H](NC(=O)[C@H](C)NC)C(=O)N3CCC[C@H]3CN(CCc3ccccc3)C(=O)C(F)(F)F)cc2)cc1)C(=O)N1CCC[C@H]1CN(CCc1ccccc1)C(=O)C(F)(F)F [Compound 4] |
